Like-named read-outs stand apart in the source and are kept apart here.
Key:
[1] = tested on: RNA Polymerase II Serine 5 phosphorylation in A549 cells overexpressing CDK7-mutant (C312S); experiment: Imaging-based cellular RNA PolII Ser5 phosphorylation assay in A549 cells overexpressing CDK7-mutant (C312S); assay type: cell-based, human; conditions: RNA PolII Ser5 phosphorylation, averaged over all measurements; for IC50: Homo sapiens, A549, A549 cells overexpressing CDK7-mutant (C312S), read-out: CDK7_A549 mutant hCDK7(pIC50) (converted); for CDK7_A549 mutant hCDK7(pIC50): A549 cells overexpressing CDK7-mutant (C312S)
Method in brief: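 Readout was automated imaging of anti-phospho-Ser5 Rpb1 CTD immunofluorescence, with IC50 fitted to % control versus concentration. Cells were A549 stably overexpressing non-covalently targetable CDK7 C312S alongside wild-type, exposed to compound 3 h at 37 °C. DMSO and 10 μM reference compound served as controls.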

[2] = tested on: RNA Polymerase II Serine 5 phosphorylation (Rpb1 CTD, downstream substrate of CDK7) in A549 cells; experiment: Imaging-based cellular RNA PolII Ser5 phosphorylation assay in A549 cells; assay type: cell-based, human; conditions: wild-type CDK7, RNA PolII Ser5 phosphorylation, averaged over all measurements; for IC50: Homo sapiens, A549, A549 cells, read-out: CDK7_A549 Wild-type CDK7 (pIC50) (converted); for CDK7_A549 Wild-type CDK7 (pIC50): A549 cells
Method in brief: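 IC50 derived by fitting % control (DMSO high, 10 μM reference low) against concentration, with Hill slope. Readout: high-content imaging of phospho-Ser5 Rpb1 CTD antibody staining in fixed, permeabilized A549 cells exposed to compound 3 h after 20 h culture in 1% FBS DMEM.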

[3] = target: CDK7/cyclinH/MAT1 trimeric complex (Homo sapiens, UniProt P50613); experiment: In vitro CDK7 assay, potency of irreversible covalent inhibitors (kinact/KI), coupled PK/LDH ADP readout at 340 nm
Sequence of CDK7/cyclinH/MAT1 trimeric complex (P50613 whole entry): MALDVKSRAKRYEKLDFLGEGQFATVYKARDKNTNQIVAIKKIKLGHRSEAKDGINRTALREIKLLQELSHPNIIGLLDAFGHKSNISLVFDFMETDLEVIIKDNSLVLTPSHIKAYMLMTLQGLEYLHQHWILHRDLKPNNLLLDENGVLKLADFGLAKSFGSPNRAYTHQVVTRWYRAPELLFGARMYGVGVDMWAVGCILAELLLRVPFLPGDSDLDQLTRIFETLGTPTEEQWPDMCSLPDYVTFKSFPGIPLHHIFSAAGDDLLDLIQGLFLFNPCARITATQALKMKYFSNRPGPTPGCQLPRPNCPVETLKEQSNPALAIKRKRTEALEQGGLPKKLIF
Sequence of CDK7/cyclinH/MAT1 trimeric complex (P51946 whole entry partner): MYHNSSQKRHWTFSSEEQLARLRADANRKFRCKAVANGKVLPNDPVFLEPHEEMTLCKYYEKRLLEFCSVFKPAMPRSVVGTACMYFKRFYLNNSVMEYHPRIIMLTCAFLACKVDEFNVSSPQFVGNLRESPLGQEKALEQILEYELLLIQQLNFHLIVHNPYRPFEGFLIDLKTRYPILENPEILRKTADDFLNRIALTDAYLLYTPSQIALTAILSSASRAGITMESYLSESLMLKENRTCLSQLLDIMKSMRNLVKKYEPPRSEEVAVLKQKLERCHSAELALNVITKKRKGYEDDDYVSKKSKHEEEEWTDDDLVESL
Sequence of CDK7/cyclinH/MAT1 trimeric complex (P51948 whole entry partner): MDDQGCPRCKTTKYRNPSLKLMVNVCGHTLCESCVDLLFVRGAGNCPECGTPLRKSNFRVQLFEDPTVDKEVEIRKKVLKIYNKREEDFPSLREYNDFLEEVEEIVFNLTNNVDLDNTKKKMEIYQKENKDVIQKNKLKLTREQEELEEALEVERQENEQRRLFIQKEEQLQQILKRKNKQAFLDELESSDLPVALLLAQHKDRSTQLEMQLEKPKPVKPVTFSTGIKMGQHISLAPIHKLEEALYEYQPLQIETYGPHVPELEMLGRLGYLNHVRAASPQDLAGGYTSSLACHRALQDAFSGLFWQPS

[4] = CDK7 (20 nM enz.) (KI, μM), 20 nM enzyme
[5] = read-out: CDK7 (20 nM enz.) (kinact, s^−1), 20 nM enzyme
[6] = read-out: CDK7 (20 nM enz.) (kinact/KI, M^−1*s^−1), 20 nM enzyme
[7] = read-out: CDK7 (20 nM enz.) (kobs/[I], M^−1*s^−1), 20 nM enzyme
[8] = CDK7 (KI(μM)), […], 1 mM ATP, room temperature, averaged values over all measurements
[9] = read-out: CDK7 (kinact, s^−1), kinact = maximal rate of inactivation, 1 mM ATP, room temperature, averaged values over all measurements
[10] = read-out: CDK7 (kinact/KI, M^−1*s^−1), potency of irreversible covalent inhibitors, 1 mM ATP, room temperature, averaged values over all measurements

SMILES	IC50 [1] [nM]	IC50 [2] [nM]	Ki [3, 4] [µM]	kinact [3, 5] [s⁻¹]	kinact/KI [3, 6] [M⁻¹ s⁻¹]	further results
C=CC(=O)N1CC[C@H](N2CC(c3cc4c(c(C)n3)OCc3c(-c5cnn(C)c5)ccnc3N4)C2)[C@@H](F)C1 (mixture of isomers) [Compound 212]	> 10000	398	0.2	2.94e-05	147	–
C=CC(=O)N1CC(N2CCC(c3ccc4c(c3)Nc3nccc(N5CCOCC5)c3CO4)CC2)C1 [Compound 121]	–	–	0.0963	–	–	CDK7_A549 mutant hCDK7(pIC50) [1]: <5; CDK7_A549 Wild-type CDK7 (pIC50) [2]: 6.9; CDK7 (20 nM enz.) (kinact, s^−1) ([3]; 20 nM enzyme): 9.753e-05 s⁻¹; CDK7 (20 nM enz.) (kinact/KI, M^−1*s^−1) ([3]; 20 nM enzyme): 1012.54 M⁻¹ s⁻¹
C=CC(=O)N1CC[C@H](N2CC(c3cc4c(c(C#N)n3)O[C@H](C)c3c(N5CCOCC5)ccnc3N4)C2)C1 (single isomer, unassigned) [Compound 507]	8130	110	–	–	–	kinact/KI [3, 7]: 389 M⁻¹ s⁻¹
C=CC(=O)N1CC(N2CCC(c3cc4c(c(-c5ncc[nH]5)c3)OCc3c(N5CCOCC5)ccnc3N4)CC2)C1 [Compound 275]	> 10000	87.1	–	–	–	kinact/KI [3, 7]: 921 M⁻¹ s⁻¹
C=CC(=O)N1CC(N2CCC(c3cc4c(c(C)n3)O[C@H](C)c3c(C5CCOCC5)ccnc3N4)CC2)C1 (single isomer, unassigned) [Compound 246]	> 10000	~28.8	0.0946	8.4e-05	887	–
C=CC(=O)N1CC(N2[C@@H]3CC[C@H]2C[C@@H](c2ccc4c(c2)Nc2nccc(N5CCOCC5)c2CO4)C3)C1 [Compound 68]	–	–	–	–	–	CDK7_A549 mutant hCDK7(pIC50) [1]: 5.14; CDK7_A549 Wild-type CDK7 (pIC50) [2]: 7.4; CDK7 (20 nM enz.) (kobs/[I], M^−1*s^−1) ([3]; 20 nM enzyme): 1369 M⁻¹ s⁻¹
C=CC(=O)N1CC[C@@H](N2CC(c3cc(C)c4c(c3)Nc3nccc(C5CCOCC5)c3CO4)C2)C1 (single isomer, unassigned) [Compound 196]	> 3980	105	0.0924	4.58e-05	496	–
C=CC(=O)N1CC(N2CC[C@@H](c3cc4c(c(C)n3)OCc3c(N5CCOCC5)ccnc3N4)N(C)CC2)C1 (single isomer, unassigned) [Compound 454]	> 10000	257	0.245	5.68e-05	232	–
C=CC(=O)N1CC(N2CC(c3cc4c(c(C(F)(F)F)n3)OCc3c(N5CCOCC5)ccnc3N4)C2)C1 [Compound 315]	–	–	–	–	–	CDK7_A549 mutant hCDK7(pIC50) [1]: 5.3; CDK7_A549 Wild-type CDK7 (pIC50) [2]: 7.25; CDK7 (20 nM enz.) (kobs/[I], M^−1*s^−1) ([3]; 20 nM enzyme): 894.649 M⁻¹ s⁻¹
C=CC(=O)N1CC(N2CCC(c3ccc4c(c3)Nc3nccc(C5CCOCC5)c3CO4)CC2)C1 [compound 34]	–	–	–	–	–	CDK7_A549 mutant hCDK7(pIC50) [1]: <5; CDK7_A549 Wild-type CDK7 (pIC50) [2]: 6.81; CDK7 (kinact/KI, M^−1*s^−1) ([3]; potency of irreversible covalent inhibitors, 1 mM ATP, room temperature, averaged values over all measurements): 2083.98 M⁻¹ s⁻¹; kinact/KI [3, 7]: 1030 M⁻¹ s⁻¹
CC#CC(=O)N1CCC(N2CCC(c3cc4c(c(C)n3)OCc3c(N5CCOCC5)ccnc3N4)CC2=O)CC1 (stereo not shown) [Compound 484]	> 10000	141	–	–	289	–
CC#CC(=O)N1CCC(N2CCN(c3cc4c(c(C)n3)OCc3c(N5CCOCC5)ccnc3N4)CC2)CC1 [Compound 393]	> 10000	105	0.0477	2.18e-05	457	–
CC#CC(=O)N1CC(n2cc(-c3cc(C)c4c(c3)Nc3nccc(N5CCOCC5)c3CO4)cn2)C1 [Compound 333]	6760	178	0.11	2.12e-05	193	–
CC#CC(=O)N1CC(N2CCC(c3cc4c(c(C#N)n3)O[C@@H](C)c3c(N5CCOCC5)ccnc3N4)CC2)C1 (single isomer, unassigned) [Compound 520]	> 10000	158	0.00977	2.91e-05	–	CDK7 (20 nM enz.) (kinact/KI, M^−1*s^−1) ([3]; 20 nM enzyme): 2981 M⁻¹ s⁻¹
C=CC(=O)N1CCC(N2CC(c3cc(F)c4c(c3)Nc3nccc(-c5cnn(C)c5)c3CO4)C2)CC1 [Compound 117]	7760	126	0.0512	4.56e-05	891	–
Cc1nc(C2CCN(C3CN(C(=O)/C=C/CN(C)C)C3)CC2)cc2c1OCc1c(-c3cnn(C)c3)ccnc1N2 [Compound 540]	> 10000	550	0.0301	7.15e-05	2310	–

SMILES	IC50 [1] [nM]	IC50 [2] [nM]	Ki [3, 4] [µM]	kinact [3, 5] [s⁻¹]	kinact/KI [3, 6] [M⁻¹ s⁻¹]	further results
C=CC(=O)N1CC(N2CCC(O)(c3cc(C)c4c(c3)Nc3nccc(C5CCOCC5)c3CO4)CC2)C1 [Compound 159]	> 10000	70.8	0.144	0.000115	794	–
C=CC(=O)N1CC(c2nc(C)c(-c3ccc4c(c3)Nc3nccc(N5CCOCC5)c3CO4)c(C)n2)C1 [Compound 51]	> 10000	417	–	–	–	Ki [3, 8]: 0.0706 µM; kinact [3, 9]: 7.84e-05 s⁻¹; kinact/KI [3, 10]: 1110 M⁻¹ s⁻¹
CC#CC(=O)N1CC(N2CCC(c3cc4c(c(C#N)n3)O[C@@H](C)c3c(N5CCOCC5)ccnc3N4)CC2)C1 (single isomer, unassigned) [Compound 542]	–	–	0.0082	–	–	CDK7_A549 mutant hCDK7(pIC50) [1]: <5; CDK7_A549 Wild-type CDK7 (pIC50) [2]: 6.62; CDK7 (20 nM enz.) (kinact, s^−1) ([3]; 20 nM enzyme): 0.0000556 s⁻¹; CDK7 (20 nM enz.) (kinact/KI, M^−1*s^−1) ([3]; 20 nM enzyme): 6751 M⁻¹ s⁻¹
C=CC(=O)Nc1cc(-c2ccc3c(c2)Nc2nccc(N4CCOCC4)c2CO3)ccn1 [Compound 24]	6920	52.5	–	–	1250	kinact/KI [3, 10]: 21.5 M⁻¹ s⁻¹
C=CC(=O)Nc1ccc(C(=O)Nc2ccc3c(c2)Nc2ncc(C)c(C4CCOCC4)c2CO3)cc1 [Compound 2]	> 10000	794	–	–	–	Ki [3, 8]: 0.129 µM; kinact [3, 9]: 7.86e-05 s⁻¹; kinact/KI [3, 10]: 609 M⁻¹ s⁻¹
C=CC(=O)N1CC(N2CCC(c3cc4c(c(C#N)n3)OCc3c(C5CCOCC5)ccnc3N4)CC2)C1 [Compound 322]	9550	79.4	–	–	–	kinact/KI [3, 7]: 740 M⁻¹ s⁻¹
C=CC(=O)N1CC(N2CC(c3cc4c(c(C(F)(F)F)n3)OCc3c(N5CCOCC5)ccnc3N4)C2)C1 [Compound 357]	–	–	–	–	–	CDK7_A549 mutant hCDK7(pIC50) [1]: 5.11; CDK7_A549 Wild-type CDK7 (pIC50) [2]: 7.24; CDK7 (20 nM enz.) (kobs/[I], M^−1*s^−1) ([3]; 20 nM enzyme): 2368.08 M⁻¹ s⁻¹
C=CC(=O)N1CC[C@@H](N2CC(c3cc(C)c4c(c3)Nc3nccc(-c5cnn(C)c5)c3CO4)C2)[C@@H](F)C1 (mixture of isomers) [Compound 201]	~10000	89.1	0.0701	3.6e-05	514	–
C=CC(=O)N1CC(N2CCO[C@H](c3cc(C)c4c(c3)Nc3nccc(C5CCOCC5)c3CO4)CC2)C1 (single isomer, unassigned) [Compound 219]	> 10000	200	0.311	6.39e-05	206	–
C=CC(=O)N1CC[C@H](N2CC(c3cc4c(c(C5CC5)n3)OCc3c(-c5cnn(C)c5)ccnc3N4)C2)C1 (single isomer, unassigned) [Compound 287]	> 10000	129	0.188	0.000117	622	–
C=CC(=O)N1CC[C@H](N2CC(c3cc4c(c(C(F)(F)F)n3)OCc3c(N5CCOCC5)ccnc3N4)C2)C1 (single isomer, unassigned) [Compound 234]	8510	95.5	–	–	–	CDK7 (20 nM enz.) (kobs/[I], M^−1*s^−1) ([3]; 20 nM enzyme): 610.385 M⁻¹ s⁻¹
C=CC(=O)N1CC[C@@H](N2CCC(c3ccc4c(c3)Nc3nccc(N5CCOCC5)c3CO4)CC2)C1 (single isomer, unassigned) [Compound 44]	832	< 9.77	–	–	–	kinact/KI [3, 7]: 1570 M⁻¹ s⁻¹; kinact/KI [3, 10]: 602 M⁻¹ s⁻¹
CC#CC(=O)N1CC[C@@H](N2CC(c3cc(C)c4c(c3)Nc3nccc(N5CCOCC5)c3[C@@H](C)O4)C2)C1 (single isomer, unassigned) [Compound 289]	> 10000	123	0.0628	2.54e-05	404	–
C=CC(=O)N1CC(N2CCC(c3cc(C)c4c(c3)Nc3nccc(C5CCS(=O)(=O)CC5)c3CO4)CC2)C1 [Compound 133]	> 10000	166	0.0971	6.94e-05	715	–
CC#CC(=O)N1CC(N2CC[C@@H](c3cc4c(c(C)n3)OCc3c(N5CCOCC5)ccnc3N4)C2)C1 (single isomer, unassigned) [Compound 386]	> 10000	1620	0.399	1.64e-05	41.1	–
